Reference: publication PMC11693508, “Pharmacokinetics, bioavailability, and tissue distribution of MRTX1133 in rats using UHPLC-MS/MS” (Frontiers in Pharmacology, 2024)
Like-named read-outs stand apart in the source and are kept apart here.

Key:
[1] = test system: tumor models, including pancreatic and colorectal cancer; design: method as in Kataoka et al., 2023; Drosten and Barbacid, 2022; settings: multiple in vivo tumor models, ref Kataoka et al., 2023, Drosten and Barbacid, 2022; cited from earlier work
[2] = Pharmacokinetic study in rats after intragastric and intravenous administration (plasma, UHPLC-MS/MS); assay type: in vivo, Sprague-Dawley rats; settings: for Tmax: po, 25 mg/kg; for AUC(0-t): n = 10; for MRT last: read-out: MRT(0-t)
Procedure: The pharmacokinetic study was performed using oral solutions of MRTX1133 in 5% carboxymethyl-cellulose sodium (CMC-Na) at a concentration of 2.5 mg mL^-1 (the dose was 25 mg kg^-1 and 10 mL kg^-1). The intravenous solution was prepared at a concentration of 5 mg mL^-1 in polyethylene glycol 400 and dimethyl sulfoxide (8%). Twenty rats were randomly divided into two groups (ten rats each group), the rats in one group were given MRTX1133 by intravenous administration at 5 mg kg^-1 and the other group by intragastric administration at 25 mg kg^-1. Rats were slightly anesthetized with diethyl ether, blood samples were collected (approximately 150 µL) from the suborbital vein, and placed into heparinized tubes at 0.17 h, 0.33 h, 0.5h, 0.75 h, 1 h, 1.5 h, 2 h, 3 h, 4 h, 6 h, 8 h, 10 h, and 24 h after treatment. The rats were treated with saline at the same volume by gavage and used as control. Blood samples were centrifuged at 20,800 g for 10 min (at 4°C) and stored at - 80°C.
The DAS 3.2 software package (edited by the Chinese Mathematical Pharmacology Society) was used for the pharmacokinetic data analysis and the non-compartmental model was applied. The oral bioavailability (F) of MRTX1133 was measured by comparing each area under the curve (AUC) 0-t value after intragastric (i.g.) and intravenous (i.v.) administration according to the equation: F = (AUC i. g./Dose i. g.)/(AUC i. v./Dose i. v.).

KRAS (G12D) = test system: KRAS (G12D); design: method as in Wang et al., 2022; settings: in vitro in cell culture; ref Wang et al., 2022; cited from earlier work
[3] = design: method as in Wang et al. (2022); settings: CD-1 mice, intraperitoneal 30 mg/kg, ref Wang et al. (2022), cited from earlier work
[4] = Excretion in urine and feces of rats after intravenous administration; assay type: in vivo, Sprague-Dawley rats; settings: rat, intravenous 5 mg/kg; for excretion through the kidney as prototype drug (urine): mean ± SD, n = 5
Procedure: The distribution of MRTX1133 in the tissues was performed using 25 rats with a single intravenous administration of MRTX1133 at 5 mg kg^-1. The blood samples were collected from abdominal aorta at 0.5 h, 1 h, 2 h, 6 h, and 24 h (five rats at each time point), then the organs such as the heart, liver, spleen, lung, kidney, intestine, and pancreas were immediately collected. The organs were washed with cold physiological saline (4°C), they were weighed and homogenized in cold saline solution (1:3, w/v). The homogenized samples were treated according to the method described in the sample preparation section. The excretion of MRTX1133 in the urine was also investigated by placing the rats in metabolic cages after intravenous administration of MRTX1133 at 5 mg kg^-1 (one rat in each cage), the urine and feces were collected at 2 h, 6 h and 24 h after administration (five rats at each time point), and the content of MRTX1133 in urine and feces was detected by the LC-MS method.

[5] = Stability of MRTX1133 in rat plasma and tissue homogenates under different storage conditions; assay type: physicochemical; settings: for Post-processing stability Accuracy / Short-term stability Accuracy / −80°C for 14 days Accuracy / Freeze-thaw stability Accuracy: n = 6; for −80°C for 14 days Accuracy: long-term; for Freeze-thaw stability Accuracy: three freeze-thaw cycles −20°C to 25°C
Procedure: The stability of MRTX1133 was determined by analyzing LQ, MQ, and HQ samples under different storage conditions, which included three freeze-thaw stability (from −20°C to 25°C), long-term stability (−80°C for 14 days), short-term stability (25°C for 6 h), and post-processing stability (4°C for 24 h). The samples concentrations were compared with the freshly prepared QC samples and were considered stable if the accuracy were 85%–115% and RSD were ±15%.

[6] = Sprague-Dawley, rat plasma, intravenous 5 mg/kg
[7] = Sprague-Dawley, rat plasma, oral 25 mg/kg
[8] = rat intestine homogenate, 4.22 ng/mL
[9] = rat intestine homogenate, 21.12 ng/mL
[10] = rat kidney homogenate, 21.12 ng/mL
[11] = rat kidney homogenate, 211.20 ng/mL
[12] = rat kidney homogenate, 1,056.00 ng/mL
[13] = rat liver homogenate, 21.12 ng/mL
[14] = rat liver homogenate, 211.20 ng/mL
[15] = rat liver homogenate, 2,112.00 ng/mL

C#Cc1c(F)ccc2cc(O)cc(-c3ncc4c(N5CC6CCC(C5)N6)nc(OC[C@@]56CCCN5C[C@H](F)C6)nc4c3F)c12 [MRTX1133]
antitumor effect in vivo [1]: induces tumor regression | bioavailability ([2]; Sprague-Dawley, plasma, oral, rat, AUC(0-t) i.g. 25 mg/kg vs i.v. 5 mg/kg, read-out: F (oral bioavailability)): 2.92% | CL/F ([2]; Sprague-Dawley, plasma, rat, oral 25 mg/kg, read-out: CL/F (converted)): 199 L/h/kg | Tmax ([2]; Sprague-Dawley, rat, plasma, rat plasma, oral 25 mg/kg, read-out: Tmax): 0.6 ± 0.13 h | Tmax ([2]; Sprague-Dawley, rat, plasma, rat plasma, oral 25 mg/kg, read-out: time of peak plasma concentration (converted)): 0.75 h | half-life [2, 6]: 2.88 ± 1.08 h | AUC(0-t) [2, 6]: 928 ± 192 ng·h/mL | MRT last [2, 6]: 1.34 ± 0.6 h | Cmax [2, 7]: 130 ± 25.2 ng/mL | half-life [2, 7]: 1.12 ± 0.46 h | MRT last [2, 7]: 1.25 ± 0.18 h | AUC(0-t) ([2]; Sprague-Dawley, rat plasma, oral (intragastric) 25 mg/kg): 136 ± 46.5 ng·h/mL | plasma concentration 8 h after intravenous administration ([2]; rat plasma, intravenous 5 mg/kg, 8 h): bleow the limit of quantitation | plasma concentration 6 h after oral administration ([2]; rat plasma, oral 25 mg/kg, 6 h): bleow the limit of quantitation | CL/F ([2]; rat, intravenous 5 mg/kg): 5.14 ± 1.58 L/h/kg | V/F ([2]; rat, intravenous 5 mg/kg): 22.83 ± 11.67 L/kg | V/F ([2]; rat, oral 25 mg/kg): 318.99 ± 157.43 L/kg | potency (KRAS (G12D)): single digit nanomolar | selectivity for KRAS (G12D) compared with wild-type KRAS (KRAS (G12D)): more than 1000 fold | plasma concentration ([3]; 4 h): ~1,000 ng mL^-1 | plasma concentration ([3]; 8 h): ~100 ng/mL | plasma concentration ([3]; 24 h): approximately 50 ng mL^-1 | Cmax ([3]; at 1 h): approximately 7,000 ng mL^-1 | excretion through the kidney as prototype drug (urine) ([4]; 6 h): 10.43% ± 2.89% | excretion through the kidney as prototype drug (urine), range ([4]; 6 h): 6.53%–13.54% | excretion through the kidney as prototype drug (urine) ([4]; 24 h, 5 mg/kg): 22.59% ± 3.22% | excretion through the kidney as prototype drug (urine), range ([4]; 24 h): 17.60%–25.92% | MRTX1133 in feces ([4]; feces 24 h): no MRTX1133 was found | stability in plasma samples and homogenates ([5]; 25°C for 6 h, 4°C for 24 h, three freeze-thaw cycles (−20°C to 25°C), −80°C for 14 days): stable | Post-processing stability Accuracy ([5]; rat intestine homogenate, 4.22 ng/mL, 4°C for 24 h): 98.23% | Short-term stability Accuracy ([5]; rat intestine homogenate, 4.22 ng/mL, 25°C for 6 h): 95.41% | −80°C for 14 days Accuracy [5, 8]: 93.31% | Freeze-thaw stability Accuracy [5, 8]: 95.83% | Post-processing stability Accuracy ([5]; rat intestine homogenate, 21.12 ng/mL, 4°C for 24 h): 98.14% | Short-term stability Accuracy ([5]; rat intestine homogenate, 21.12 ng/mL, 25°C for 6 h): 96.69% | −80°C for 14 days Accuracy [5, 9]: 92.54% | Freeze-thaw stability Accuracy [5, 9]: 94.42% | Short-term stability Accuracy ([5]; rat intestine homogenate, 105.60 ng/mL, 25°C for 6 h): 94.97% | −80°C for 14 days Accuracy ([5]; rat intestine homogenate, 105.60 ng/mL): 90.35% | Post-processing stability Accuracy ([5]; rat kidney homogenate, 21.12 ng/mL, 4°C for 24 h): 101.18% | Short-term stability Accuracy ([5]; rat kidney homogenate, 21.12 ng/mL, 25°C for 6 h): 103.01% | −80°C for 14 days Accuracy [5, 10]: 95.23% | Freeze-thaw stability Accuracy [5, 10]: 95.07% | Post-processing stability Accuracy ([5]; rat kidney homogenate, 211.20 ng/mL, 4°C for 24 h): 98.13% | Short-term stability Accuracy ([5]; rat kidney homogenate, 211.20 ng/mL, 25°C for 6 h): 97.29% | −80°C for 14 days Accuracy [5, 11]: 92.7% | Freeze-thaw stability Accuracy [5, 11]: 95.58% | Post-processing stability Accuracy ([5]; rat kidney homogenate, 1,056.00 ng/mL, 4°C for 24 h): 95.47% | Short-term stability Accuracy ([5]; rat kidney homogenate, 1,056.00 ng/mL, 25°C for 6 h): 97.04% | −80°C for 14 days Accuracy [5, 12]: 91.34% | Freeze-thaw stability Accuracy [5, 12]: 93.72% | Post-processing stability Accuracy ([5]; rat liver homogenate, 21.12 ng/mL, 4°C for 24 h): 104.23% | Short-term stability Accuracy ([5]; rat liver homogenate, 21.12 ng/mL, 25°C for 6 h): 101.44% | −80°C for 14 days Accuracy [5, 13]: 96.4% | Freeze-thaw stability Accuracy [5, 13]: 97.72% | Post-processing stability Accuracy ([5]; rat liver homogenate, 211.20 ng/mL, 4°C for 24 h): 105.35% | Short-term stability Accuracy ([5]; rat liver homogenate, 211.20 ng/mL, 25°C for 6 h): 105.89% | −80°C for 14 days Accuracy [5, 14]: 94.88% | Freeze-thaw stability Accuracy [5, 14]: 96.69% | Post-processing stability Accuracy ([5]; rat liver homogenate, 2,112.00 ng/mL, 4°C for 24 h): 97.47% | Short-term stability Accuracy ([5]; rat liver homogenate, 2,112.00 ng/mL, 25°C for 6 h): 98.17% | −80°C for 14 days Accuracy [5, 15]: 93.33% | Freeze-thaw stability Accuracy [5, 15]: 92.38% | Post-processing stability Accuracy ([5]; rat plasma, 4.22 ng/mL, 4°C for 24 h): 107.16% | Short-term stability Accuracy ([5]; rat plasma, 4.22 ng/mL, 25°C for 6 h): 108.92% | −80°C for 14 days Accuracy ([5]; rat plasma, 4.22 ng/mL): 103.66% | Freeze-thaw stability Accuracy ([5]; rat plasma, 4.22 ng/mL): 101.64% | Post-processing stability Accuracy ([5]; rat plasma, 105.60 ng/mL, 4°C for 24 h): 94.98% | Short-term stability Accuracy ([5]; rat plasma, 105.60 ng/mL, 25°C for 6 h): 95.35% | −80°C for 14 days Accuracy ([5]; rat plasma, 105.60 ng/mL): 90.18% | Freeze-thaw stability Accuracy ([5]; rat plasma, 105.60 ng/mL): 92.05% | Post-processing stability Accuracy ([5]; rat plasma, 1,056.00 ng/mL, 4°C for 24 h): 92.05% | Short-term stability Accuracy ([5]; rat plasma, 1,056.00 ng/mL, 25°C for 6 h): 92.49% | −80°C for 14 days Accuracy ([5]; rat plasma, 1,056.00 ng/mL): 90.23% | Freeze-thaw stability Accuracy ([5]; rat plasma, 1,056.00 ng/mL): 90.04%
